{
  "source": "patent US5635479A",
  "about": "“Treatment of gynecological malignancies with biologically active peptides” (Magainin Pharmaceuticals Inc., priority 1995, dated 1997)",
  "test_system": "murine Spontaneous Ovarian Teratoma cells (SOT cells)",
  "experiment": "Survival and ascites accumulation of mice injected with Spontaneous Ovarian Teratoma cells",
  "format": "in vivo",
  "details": "for ILS / Median Survival Time: Table I, i.p. days 2 and 5 after SOT cells; for survival time and survivors vs control group: Example 3, FIG. 3, 20 mg/kg at 2 days, or at 2 days and 5 days after SOT cells; for accumulation of ascites fluid (body weight data) vs control group: Example 3, FIG. 4, peptides 20 mg/kg at 2 days, or 2 and 5 days, adriamycin 5 mg/kg on day 2 only; for delay of accumulation of ascites fluid (body weight data): Example 1, FIG. 1, untreated mice began to accumulate fluid 5 to 7 days after implantation; for increase in lifespan: Example 1, FIG. 2, median day of death as endpoint",
  "description": "Groups of mice, with six mice in each group, were injected with murine Spontaneous Ovarian Teratoma cells (SOT cells). At day 2, or at day 2 and day 5 after injection, the mice were injected with a saline solution, 5 mg/kg adriamycin (day 2 only), with 22 mg/kg of a peptide having the structure (SEQ ID NO:115)-NH2, or, in which each amino acid residue of (SEQ ID NO:115)-NH2 is a D-amino acid residue, such peptide hereinafter referred to as D-(SEQ ID NO:115)-NH2 or with 130 mg/kg of Cecropin A (SEQ ID NO:116)-NH2. The animals were monitored for survival time, the number of survivors in each group, the increase in lifespan, and the increase in body weight.\nThe treatment with adriamycin increased the lifespan by 76%.\nGroups of mice, with 5 or 6 mice in each group, were injected with Spontaneous Ovarian Teratoma Cells. At 2 days and 5 days after the injection of the Spontaneous Ovarian Teratoma Cells (SOT cells), the groups of mice were injected intraperitoneally with a control saline solution, adriamycin, or with one of the following peptides:\nThe mice in each group were then monitored for median survival time (in days) and for increase in life span (ILS) vis a vis the control group. The median survival time is the day of death of the third mouse in each group. The results for the groups of mice given intraperitoneal injections of peptide at days 2 and 5 following injection of SOT cells are given in Table I below.\nGroups of mice, with 6 mice in each group, were injected with Spontaneous Ovarian Teratoma Cells as described in Example 2. At 2 days, or at 2 days and 5 days after the injection of the SOT cells, the groups of mice were injected with saline (control), adriamycin (5 mg/kg-on day 2 only), or with 20 mg/kg of (SEQ ID NO:115)-NH2 or D-(SEQ ID NO:115)-NH2. The mice were then monitored for survival time, as well as for body weight.",
  "key": {"[1]": {"details": "22 mg/kg D-(SEQ ID NO:115)-NH2, 130 mg/kg (SEQ ID NO:116)-NH2, 5 mg/kg adriamycin"}, "[2]": {"details": "administered on day 2 and day 5, 22 mg/kg D-(SEQ ID NO:115)-NH2, 130 mg/kg (SEQ ID NO:116)-NH2"}, "[3]": {"details": "administered on day 2 only, 22 mg/kg D-(SEQ ID NO:115)-NH2, 130 mg/kg (SEQ ID NO:116)-NH2, 5 mg/kg adriamycin"}, "[4]": {"details": "dose 130 mg/kg/day, control value not given"}},
  "note": "Square brackets hold non-standard residues; d marks the D form. Ends that are not written are not given here. Peptide text beside a SMILES is read from it. * marks the point of attachment. Octanoyl = CCCCCCCC(=O)*",
  "data": [
    {"molecule": "D-(SEQ ID NO:117)-NH2: D-form of (SEQ ID NO:117)-NH2 (G[dI]G[dK][dF][dL][dK][dS][dA][dK][dK][dF]G[dK][dA][dF][dV][dK][dI][dL][dN][dS]-NH2; N-terminus assumed; SMILES CC[C@@H](C)[C@@H](NC(=O)CN)C(=O)NCC(=O)N[C@H](CCCCN)C(=O)N[C@H](Cc1ccccc1)C(=O)N[C@H](CC(C)C)C(=O)N[C@H](CCCCN)C(=O)N[C@H](CO)C(=O)N[C@H](C)C(=O)N[C@H](CCCCN)C(=O)N[C@H](CCCCN)C(=O)N[C@H](Cc1ccccc1)C(=O)NCC(=O)N[C@H](CCCCN)C(=O)N[C@H](C)C(=O)N[C@H](Cc1ccccc1)C(=O)N[C@@H](C(=O)N[C@H](CCCCN)C(=O)N[C@@H](C(=O)N[C@H](CC(C)C)C(=O)N[C@H](CC(N)=O)C(=O)N[C@H](CO)C(N)=O)[C@H](C)CC)C(C)C)", "values": [
      {"measurement": "ILS", "setting": "dose 15 mg/kg/day, controls 21", "result": 67, "unit": "%"},
      {"measurement": "Median Survival Time", "setting": "dose 15 mg/kg/day, controls 21", "result": 35, "unit": "days"}
    ]},
    {"molecule": "CCCCCCCC(=O)N[C@@H](CCCCN)C(=O)N[C@H](C(=O)N[C@@H](C)C(=O)NCC(=O)N[C@@H](CCCCN)C(=O)N[C@H](C(=O)N[C@@H](C)C(=O)N[C@@H](CCCCN)C(=O)N[C@H](C(=O)N[C@@H](C)C(=O)NCC(=O)N[C@@H](CCCCN)C(=O)N[C@H](C(=O)N[C@@H](C)C(=O)N[C@@H](CCCCN)C(=O)N[C@H](C(=O)N[C@@H](C)C(=O)NCC(=O)N[C@@H](CCCCN)C(=O)N[C@H](C(=O)N[C@@H](C)C(N)=O)[C@@H](C)CC)[C@@H](C)CC)[C@@H](C)CC)[C@@H](C)CC)[C@@H](C)CC)[C@@H](C)CC", "note": "[Oct-(SEQ ID NO:27)-NH2] (Octanoyl-KIAGKIAKIAGKIAKIAGKIA-NH2)", "values": [
      {"measurement": "ILS", "setting": "dose 20 mg/kg/day, controls 21", "result": 100, "unit": "%"},
      {"measurement": "Median Survival Time", "setting": "dose 20 mg/kg/day, controls 21", "result": 42, "unit": "days"}
    ]},
    {"molecule": "(SEQ ID NO:115)-NH2: peptide having the structure (SEQ ID NO:115)-NH2; sequence not printed in the text (GIGKFLKKAKKFAKAFVKIINN-NH2)", "values": [
      {"measurement": "survival time and survivors vs control group", "result": "significantly greater survival times and had more survivors"},
      {"measurement": "accumulation of ascites fluid (body weight data) vs control group", "result": "delayed and was also significantly less"},
      {"measurement": "ILS", "setting": "dose 20 mg/kg/day, controls 21", "result": 100, "unit": "%"},
      {"measurement": "Median Survival Time", "setting": "dose 20 mg/kg/day, controls 21", "result": 42, "unit": "days"},
      {"measurement": "ILS", "setting": "dose 22 mg/kg/day, controls 21", "result": 81, "unit": "%"},
      {"measurement": "Median Survival Time", "setting": "dose 22 mg/kg/day, controls 21", "result": 38, "unit": "days"}
    ]},
    {"molecule": "(SEQ ID NO:116)-NH2: Cecropin A, amide (KWKLFKKIEKVGQNIRDGIIKAGPAVAVVGQATQIAK-NH2)", "values": [
      {"measurement": "delay of accumulation of ascites fluid (body weight data)", "setting": "[1]", "result": "at least 20 days"},
      {"measurement": "increase in lifespan", "setting": "[2]", "result": 112, "unit": "%"},
      {"measurement": "increase in lifespan", "setting": "[3]", "result": 100, "unit": "%"},
      {"measurement": "ILS", "setting": "[4]", "result": 112, "unit": "%"},
      {"measurement": "Median Survival Time", "setting": "[4]", "result": 36, "unit": "days"}
    ]},
    {"molecule": "D-(SEQ ID NO:115)-NH2: (SEQ ID NO:115)-NH2 in which each amino acid residue is a D-amino acid residue (G[dI]G[dK][dF][dL][dK][dK][dA][dK][dK][dF][dA][dK][dA][dF][dV][dK][dI][dI][dN][dN]-NH2; N-terminus assumed; SMILES CC[C@@H](C)[C@@H](NC(=O)CN)C(=O)NCC(=O)N[C@H](CCCCN)C(=O)N[C@H](Cc1ccccc1)C(=O)N[C@H](CC(C)C)C(=O)N[C@H](CCCCN)C(=O)N[C@H](CCCCN)C(=O)N[C@H](C)C(=O)N[C@H](CCCCN)C(=O)N[C@H](CCCCN)C(=O)N[C@H](Cc1ccccc1)C(=O)N[C@H](C)C(=O)N[C@H](CCCCN)C(=O)N[C@H](C)C(=O)N[C@H](Cc1ccccc1)C(=O)N[C@@H](C(=O)N[C@H](CCCCN)C(=O)N[C@@H](C(=O)N[C@@H](C(=O)N[C@H](CC(N)=O)C(=O)N[C@H](CC(N)=O)C(N)=O)[C@H](C)CC)[C@H](C)CC)C(C)C)", "values": [
      {"measurement": "delay of accumulation of ascites fluid (body weight data)", "setting": "[1]", "result": "at least 20 days"},
      {"measurement": "increase in lifespan", "setting": "[2]", "result": 144, "unit": "%"},
      {"measurement": "increase in lifespan", "setting": "[3]", "result": 115, "unit": "%"},
      {"measurement": "survival time and survivors vs control group", "result": "significantly greater survival times and had more survivors"},
      {"measurement": "accumulation of ascites fluid (body weight data) vs control group", "result": "delayed and was also significantly less"},
      {"measurement": "ILS", "setting": "dose 22 mg/kg/day, controls 17", "result": 144, "unit": "%"},
      {"measurement": "Median Survival Time", "setting": "dose 22 mg/kg/day, controls 17", "result": 41.5, "unit": "days"},
      {"measurement": "ILS", "setting": "dose 22 mg/kg/day, controls 21", "result": 52, "unit": "%"},
      {"measurement": "Median Survival Time", "setting": "dose 22 mg/kg/day, controls 21", "result": 32, "unit": "days"}
    ]},
    {"molecule": "(SEQ ID NO:117)-NH2: peptide of the sequence listing, amide; sequence not printed in the text (GIGKFLKSAKKFGKAFVKILNS-NH2)", "values": [
      {"measurement": "ILS", "setting": "dose 45 mg/kg/day, controls 21", "result": 83, "unit": "%"},
      {"measurement": "Median Survival Time", "setting": "dose 45 mg/kg/day, controls 21", "result": 38, "unit": "days"}
    ]},
    {"molecule": "COc1cccc2c1C(=O)c1c(O)c3c(c(O)c1C2=O)C[C@@](O)(C(=O)CO)C[C@@H]3O[C@H]1C[C@H](N)[C@H](O)[C@H](C)O1", "note": "[adriamycin, reference compound]", "values": [
      {"measurement": "delay of accumulation of ascites fluid (body weight data)", "setting": "[1]", "result": "at least 20 days"},
      {"measurement": "increase in lifespan", "setting": "[3]", "result": 76, "unit": "%"},
      {"measurement": "accumulation of ascites fluid (body weight data) vs control group", "result": "delayed and was also significantly less"}
    ]}
  ]
}
